Where two headings read alike, the source gives them in different places.
Experiments:
[1] = Metabolic stability in liver microsomes; type: in vitro ADME, human; conditions: human, human liver microsomes; 0.5 µM test substance, 0.5 mg/mL microsomes, NADPH and UDPGA, 37° C.; read-out: T½(min), stability in human liver microsomes
Protocol: Liver microsomes (purchased from Reed Liver Disease Research (Shanghai) Co., Ltd., product: human liver microsomes (NJT)); NADPH (purchased from Roche, Lot: 40939); UDPGA; the compounds of the present invention (test substances).
• (1) A mixed working solution of testosterone (0.5 µM) and 7-hydroxycoumarin (0.5 µM) was prepared. • (2) A mixed solution of NADPH (1 mM) and UDPGA (1 mM) was prepared, and prewarmed at 37° C. in a water bath shaker before use. • (3) Liver microsomes were thawed and diluted with a buffer. • (4) A preparation of a test substance (0.5 µM) and a solution of liver microsomes (0.5 mg/mL) were added to each well of an incubation plate. • (5) Three experimental groups were set and samples were added. Test group: the test substance was incubated with liver microsomes for 0 min, 30 min, 60 min, and 120 min in the presence of the coenzyme NADPH and UDPGA; Positive control group: testosterone (0.5 µM) and 7-hydroxycoumarin (0.5 µM) were incubated with microsomes for 0 min and 120 min in the presence of the coenzyme NADPH and UDPGA; Negative control group: the test substance was incubated with microsomes for 0 and 120 min without any coenzyme. • (6) All samples were incubated at 37° C., and pre-cooled methanol was added at each termination time (0, 15, 30, 45, 60 min, 120 min) to terminate the reaction, and the time was recorded. • (7) All samples were mixed well and centrifuged at 4000 rpm for 10 min. The supernatant was taken and measured by LC-MS/MS for the amount of the test substance remaining in the samples. Data analysis was carried out as follows: T½=0.693 /k, Clint = (0.693/T½) × (1 /(microsomal protein) × Scaling Factors), Note: k is the slope of the logarithm of the remaining amounts of compound versus time.

[2] = Pharmacokinetic assay in ICR mice (i.v. and p.o.); type: in vivo; conditions: mouse, plasma, male ICR mice; for half-life: read-out: T½ (converted); for bioavailability: po 10 mg/kg vs iv 1 mg/kg
Procedure, shortened: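 Fasted male ICR mice (18-22 g) dosed at 1 mg/kg i.v. or 10 mg/kg p.o. in 5% DMSO/95% 30% HP-β-CD, three mice per time point. Submandibular plasma sampled up to 24 h, assayed by LC/MS/MS.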

TTK kinase = biological target: T1, TTK kinase (Homo sapiens, UniProt P33981); test: TTK kinase activity assay (ADP-Glo); type: biochemical; conditions: initial concentration 1000 nM, 1:3, 10 dilutions; read-out: IC50 (nM), TTK kinase inhibiting activity
T1 construct: purchased Invitrogen PV3792
T1 sequence (P33981 1-857): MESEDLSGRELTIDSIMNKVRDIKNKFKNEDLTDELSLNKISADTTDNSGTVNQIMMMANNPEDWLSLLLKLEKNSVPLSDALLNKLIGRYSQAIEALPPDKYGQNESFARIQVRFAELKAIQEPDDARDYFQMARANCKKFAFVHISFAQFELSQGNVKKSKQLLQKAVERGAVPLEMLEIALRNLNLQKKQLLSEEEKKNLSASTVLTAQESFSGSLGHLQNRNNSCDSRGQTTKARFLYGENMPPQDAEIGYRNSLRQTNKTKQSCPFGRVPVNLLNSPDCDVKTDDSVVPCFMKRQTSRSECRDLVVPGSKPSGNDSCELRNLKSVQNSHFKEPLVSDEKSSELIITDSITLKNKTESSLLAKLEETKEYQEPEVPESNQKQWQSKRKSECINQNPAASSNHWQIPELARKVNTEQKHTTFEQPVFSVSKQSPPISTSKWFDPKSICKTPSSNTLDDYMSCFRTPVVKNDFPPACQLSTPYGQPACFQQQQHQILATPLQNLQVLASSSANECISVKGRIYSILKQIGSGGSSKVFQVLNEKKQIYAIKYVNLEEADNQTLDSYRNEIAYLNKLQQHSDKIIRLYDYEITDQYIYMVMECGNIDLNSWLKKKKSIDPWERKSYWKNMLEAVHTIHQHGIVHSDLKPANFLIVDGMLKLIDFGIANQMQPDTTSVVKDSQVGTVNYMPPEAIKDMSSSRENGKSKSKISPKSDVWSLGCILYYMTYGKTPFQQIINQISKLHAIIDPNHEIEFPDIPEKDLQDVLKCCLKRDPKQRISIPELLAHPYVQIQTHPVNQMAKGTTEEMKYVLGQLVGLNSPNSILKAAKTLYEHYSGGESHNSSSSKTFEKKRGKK
Protocol: TTK kinase was purchased from Invitrogen, Cat.#: PV3792.
• (1) 1×buffer was prepared by diluting 5×buffer into 1×buffer with ddH2O, and adding 0.05 mM DTT. • (2) The compounds of the present invention were prepared at an initial concentration of 1000 nM, and diluted by 1:3 to obtain 10 serial dilutions. • (3) The diluted compounds of the present invention were added to a 384-well plate (purchased from Greiner, product number 784075) by an Echo 550 pipetting workstation, and centrifuged at 1000 g for 1 min. • (3) A 2×TTK enzyme solution was prepared with the 1×buffer. Then, 2.5 µL of the 2× enzyme solution was added to each well, centrifuged at 1000 g for 30 s, and left at room temperature for 10 min. • (4) A 2×MBP substrate/ATP mixture was prepared with the 1×buffer.

DNA-PK kinase = biological target: T2, DNA-PK kinase (Homo sapiens, UniProt P78527); test: Inhibition assay of DNA-PK kinase (Promega kit, ADP-Glo chemiluminescence); type: biochemical; conditions: 50 µM ATP, 37° C., 60 min; read-out: IC50 (nM), inhibitory activity on DNA-PK kinase
T2 construct: purchased Promega V4107
Procedure, shortened: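 Compounds incubated with DNA-PK at 37° C for 60 min; reaction stopped with ADP-Glo reagent (40 min, RT), then kinase detection reagent (30 min, RT). ADP formed read by luminescence against an ADP standard curve.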

| Compound | half-life at 0.5 µM [1] [min] | AUC ([2]; iv, 1 mg/kg) [ng·h/mL] | half-life ([2]; iv, 1 mg/kg) [h] | bioavailability [2] [%] | AUC ([2]; po, 10 mg/kg) [ng·h/mL] | Cmax ([2]; po, 10 mg/kg) [ng/mL] | half-life ([2]; po, 10 mg/kg) [h] | IC50 (TTK kinase) [nM] | IC50 (DNA-PK kinase) [nM] |
| --- | --- | --- | --- | --- | --- | --- | --- | --- | --- |
| Cc1cc(C#N)ccc1Nc1ncc2c(n1)n(C1CCOCC1)c(=O)n2C [Compound 5, 3-Methyl-4-((7-methyl-8-oxo-9-(tetrahydro-2H-pyran-4-yl)-8,9-dihydro-7H-purin-2-yl)amino)benzonitrile] | > 120 | 234 | 0.333 | 99.4 | 2270 | 835 | 3.21 | 1720 | – |
| Cc1cc(C(N)=O)c(F)cc1Nc1ncc2c(n1)n(C1CCOCC1)c(=O)n2C [Compound 24, 2-Fluoro-5-methyl-4-((7-methyl-8-oxo-9-(tetrahydro-2H-pyran-4-yl)-8,9-dihydro-7H-purin-2-yl)amino)benzamide] | > 120 | 466 | 0.95 | 135 | 6280 | 2500 | 3.73 | 4220 | 0.56 |
| Cc1cc(C(N)=O)c(F)cc1Nc1ncc2c(n1)n([C@H]1CC[C@H](C#N)CC1)c(=O)n2C [Compound 79, 4-((9-(trans-4-cyanocyclohexyl)-7-methyl-8-oxo-8,9-dihydro-7H-purin-2-yl)amino)-2-fluoro-5-methylbenzamide] | > 120 | 482 | 0.63 | 100 | 4440 | 2490 | 2.15 | – | 1.86 |
| Cc1cc(C#N)ccc1Nc1ncc2c(n1)n([C@H]1CC[C@H](C#N)CC1)c(=O)n2C [Compound 80, 4-((9-(trans-4-cyanocyclohexyl)-7-methyl-8-oxo-8,9-dihydro-7H-purin-2-yl)amino)-3-methylbenzonitrile] | > 120 | 6300 | 3.12 | 33.6 | 21200 | 3570 | 2.16 | – | 11.1 |

Further lines, results first:

| half-life at 0.5 µM [1] [min] | AUC ([2]; iv, 1 mg/kg) [ng·h/mL] | half-life ([2]; iv, 1 mg/kg) [h] | bioavailability [2] [%] | AUC ([2]; po, 10 mg/kg) [ng·h/mL] | Cmax ([2]; po, 10 mg/kg) [ng/mL] | half-life ([2]; po, 10 mg/kg) [h] | IC50 (TTK kinase) [nM] | IC50 (DNA-PK kinase) [nM] | Compound |
| --- | --- | --- | --- | --- | --- | --- | --- | --- | --- |
| > 120 | 265 | 0.87 | 38.2 | 1040 | 449 | 1.84 | 275 | – | Cc1cc(C(N)=O)ccc1Nc1ncc2c(n1)n(C1CCOCC1)c(=O)n2C [Compound 2, 3-Methyl-4-((7-methyl-8-oxo-9-(tetrahydro-2H-pyran-4-yl)-8,9-dihydro-7H-purin-2-yl)amino)benzamide] |
| > 120 | 171 | 0.771 | 78.4 | 1360 | 312 | 3.06 | 387 | 2.1 | Cc1cc(C(N)=O)ncc1Nc1ncc2c(n1)n(C1CCOCC1)c(=O)n2C [Compound 18, 4-Methyl-5-((7-methyl-8-oxo-9-(tetrahydro-2H-pyran-4-yl)-8,9-dihydro-7H-purin-2-yl)amino)picolinamide] |
| > 120 | 679 | 1.48 | 213 | 14600 | 5450 | 2.17 | 428 | 4.36 | CNC(=O)c1ccc(Nc2ncc3c(n2)n(C2CCOCC2)c(=O)n3C)c(C)c1 [Compound 27, N,3-Dimethyl-4-((7-methyl-8-oxo-9-(tetrahydro-2H-pyran-4-yl)-8,9-dihydro-7H-purin-2-yl)amino)benzamide] |

From patent US20230165867A1 (CHENGDU BAIYU PHARMACEUTICAL CO., LTD., priority 2020, published 2023)
